# Results published in patent publication US7645802B2 (Biovail Laboratories International SRL., priority 2005, dated 2010).
# Counter-ions that a name gives are not always drawn. Marks after values point to notes of the source that are not given here.
# What was measured:
# [1] = comparative forced degradation of bupropion HCl and HBr API salts, closed bottle, 40° C./75% RH; assay type: physicochemical
# Experimental: These studies were performed in closed bottles in a stability chamber kept at about 40 degrees C. and about 75% relative humidity. At specified times, the material in the bottles was analyzed for the presence of degradation products and % potency (% assay).
# The samples were exposed to the above conditions in a closed bottle for few days, and then subjected to HPLC analysis.
# The amount of the main degradation products present after treatment were compared with those amounts that were present initially.
# The samples were analyzed after 14 and 24 days (study-1) and 10 days (study II), in a quantitative manner by direct treatment of the whole content of the bottle as per the HPLC standard test method (P05.901.10).
# [2] = tested on: Rj: Wistar (Han) rats; experiment: EEG trace monitoring and behavioural observations in conscious rats
# Experimental: The effects of the two bupropion salt forms hydrochloride and hydrobromide on central nervous system activity after intraperitoneal administration were evaluated by means of EEG trace monitoring in conscious rats. The method which detects electroencephalographic activity in conscious rats follows that described by Dürmüller et al., (2000) Vigilance-Controlled Quantified EEG in Safety Pharmacology, Current Protocols in Pharmacology Unit 10.6. The study was conducted at Porsolt & Partners Pharmacology, Research Laboratory, Z. A. des Suhards—B.P. 9, 53940 Le Genest-Saint-Isle, France.
# Substances: The formulation excipient used was physiological saline (Laboratoire Aguettant). […] All substances were stored in a dry, dark, controlled access area and maintained at a controlled ambient temperature of about 20±3° C. The vehicle solutions were stored at about +4° C. The substances were administered in a volume of 5 ml/kg body weight. The doses of bupropion hydrochloride are expressed in mg/kg of salt. […] The substances were dissolved in physiological saline and prepared freshly at each day of experimentation.
# Test systems: The rats used were male Rj: Wistar (Han) rats, weighing from about 280 g to 324 g at the time of implantation. They were supplied by Elevage Janvier, 53940 Le Genest-Saint-Isle, France. […] Upon delivery to the laboratory, the animals were housed in groups of 5 animals maximum, in macrolon cages (44×28×19 cm) containing wood litter (Litalabo—SPPS, 95100 Argenteuil, France). The animals had free access to food (Code 113—SAFE, 89290 Augy, France) and tap water. The animal house was maintained under artificial lighting (12 hrs) from 7:00 to 19:00 in a controlled ambient temperature of about 21±3° C. and relative humidity maintained at from about 30% to about 80%. […] Except during the test sessions, the animals had free access to food (Code 113) and tap water. The animals were identified by marking the connector fixed on the animal's head with an indelible pen. Rats were sacrificed at the end of the experiments by lethal injection of pentobarbital (>100 mg/kg i.p.). Animals were not submitted to necropsy. There is no reason to expect that contaminants were present in the feed, water or bedding at levels capable of interfering with the results of the tests. No checks were performed for this particular study.
# Electrode implantation procedure: Implantation surgery was carried out under aseptic conditions. Rats, anesthetized with sodium pentobarbital (60 mg/kg i.p., plus supplementary doses of from about 5 mg/kg to about 10 mg/kg to maintain anesthesia until surgery completion) were implanted with 2 surface EEG electrodes, comprised of miniature titanium screws, placed bilaterally over the frontal-parietal cortex and 2 depth electrodes, comprised of twisted platinium-iridium wires, placed stereotaxically into the hippocampus CA3 area (Paxinos and Watson coordinates interaural: AP+5.0 mm, L±2.5 mm, V+7.0 mm). An additional screw, placed over the right occipital cortex, served as ground electrode. The electrodes were connected to small plugs and the whole assembly was secured on the skull with dental acrylate.
# Apparatus: For the EEG recording, the animals were placed in rectangular Plexiglas cubicles (30×10×25 cm) mounted on treadmills. Five recording units were run in parallel. A turning commutator was attached above the centre of each cubicle, about 30 cm above walking level. On one side, it was connected via an electrically shielded multicore cable to the animal and on the other side to the signal conditioning system (Coulbourn Model V75-01). The system filters were set for all channels to high pass 1 Hz and low pass 150 Hz, respectively. The amplification levels were kept at from 1000× to 10000×. The EEG signals were acquired and processed on a PC (DELL GX620-2800) installed with a 16 channel 200 kHz/12-bit AD acquisition card (NI PCI-6023E).
# [3] = tested on: rat
# [4] = two batches of each API, 10 days
# [5] = 100 mg/kg i.p., long seizure activity
smiles,measurement,setting,value
"CC(NC(C)(C)C)C(=O)c1cccc(Cl)c1 (centres unmarked) [Bupropion HCl, bupropion hydrochloride]","assay value, HCl versus HBr",[1]; [4],lower than that for the HBr salt
Br.CC(NC(C)(C)C)C(=O)c1cccc(Cl)c1 (centres unmarked) [bupropion hydrobromide],"resulting degradation products, HBr versus HCl",[1]; 14 and 24 days (study-1),either similar or better for the HBr salt
same,"level of bupropion degradation impurities, HBr versus HCl",[1]; [4],lower than bupropion HCl
same,abnormal behavior,[2]; 60 mg/kg i.p.,One rat in the bupropion hydrobromide group had a fatal whole body clonus immediately after administration
same,EEG ANALYSIS Burst cx,"[2]; rat, in vivo, ip, 10 mg/kg",−
same,EEG ANALYSIS Burst hipp,"[2]; rat, in vivo, ip, 10 mg/kg",−
same,EEG ANALYSIS Complex spike cx,"[2]; rat, in vivo, ip, 10 mg/kg",−
same,EEG ANALYSIS Complex spike hipp,"[2]; rat, in vivo, ip, 10 mg/kg",−
same,EEG ANALYSIS High amplitude fast frequency cx,"[2]; rat, in vivo, ip, 10 mg/kg",−
same,EEG ANALYSIS High amplitude fast frequency hipp,"[2]; rat, in vivo, ip, 10 mg/kg",−
same,EEG ANALYSIS High frequency burst activity cx,"[2]; rat, in vivo, ip, 10 mg/kg",−
same,EEG ANALYSIS High frequency burst activity hipp,"[2]; rat, in vivo, ip, 10 mg/kg",−
same,EEG ANALYSIS Long seizure activity cx,"[2]; rat, in vivo, ip, 10 mg/kg",−
same,EEG ANALYSIS Long seizure activity hipp,"[2]; rat, in vivo, ip, 10 mg/kg",−
same,EEG ANALYSIS Post ictual activity cx,"[2]; rat, in vivo, ip, 10 mg/kg",−
same,EEG ANALYSIS Post ictual activity hipp,"[2]; rat, in vivo, ip, 10 mg/kg",−
same,EEG ANALYSIS Repetitive isolated spike cx,"[2]; rat, in vivo, ip, 10 mg/kg",−
same,EEG ANALYSIS Repetitive isolated spike hipp,"[2]; rat, in vivo, ip, 10 mg/kg",−
same,EEG ANALYSIS Sharp waves hipp,"[2]; rat, in vivo, ip, 10 mg/kg",−
same,EEG ANALYSIS Short seizure activity cx,"[2]; rat, in vivo, ip, 10 mg/kg",−
same,EEG ANALYSIS Short seizure activity hipp,"[2]; rat, in vivo, ip, 10 mg/kg",−
same,EEG ANALYSIS Spike-and-waves cx,"[2]; rat, in vivo, ip, 10 mg/kg",−
same,EEG ANALYSIS Spike-and-waves hipp,"[2]; rat, in vivo, ip, 10 mg/kg",−
same,EEG ANALYSIS Sharp waves cx,"[2]; rat, in vivo, ip, 30 mg/kg",−
same,EEG ANALYSIS Sharp waves hipp,"[2]; rat, in vivo, ip, 30 mg/kg",−
same,EEG ANALYSIS Spike-and-waves hipp,"[2]; rat, in vivo, ip, 30 mg/kg",−
same,EEG ANALYSIS Sharp waves cx,"[2]; rat, in vivo, ip, 60 mg/kg",−
same,EEG ANALYSIS Sharp waves hipp,"[2]; rat, in vivo, ip, 60 mg/kg",−
same,EEG ANALYSIS Spike-and-waves cx,"[2]; rat, in vivo, ip, 60 mg/kg",−
same,EEG ANALYSIS Spike-and-waves hipp,"[2]; rat, in vivo, ip, 60 mg/kg",−
same,EEG ANALYSIS Sharp waves cx,"[2]; rat, in vivo, ip, 100 mg/kg",−
same,EEG ANALYSIS Sharp waves hipp,"[2]; rat, in vivo, ip, 100 mg/kg",−
same,EEG ANALYSIS Spike-and-waves cx,"[2]; rat, in vivo, ip, 100 mg/kg",−
same,EEG ANALYSIS Spike-and-waves hipp,"[2]; rat, in vivo, ip, 100 mg/kg",−
same,NUMBER OF ANIMALS WITH SEIZURE ACTIVITY,"[3]; 100 mg/kg i.p., 10 rats per group, long seizure activity, HBr dose in HCl molar equivalent",4*
same,DURATION OF INITIAL SEIZURE CORTEX mean ± s.e.m.,[3]; [5],31 ± 6
same,DURATION OF INITIAL SEIZURE HIPPOCAMPUS mean ± s.e.m.,[3]; [5],23 ± 2
same,dead,"[3]; in vivo, ip, 100 mg/kg",#dead (1/10).
